Results on 22 compounds are retold here after PubChem BioAssay AID330 (DTP/NCI, 2004).

Where “and” joins values, the source holds several entries; their conditions need not be identical. Equal values may be shown once. Toxic doses and inconclusive results are not listed.

For the test, the system named is P388 leukemia ip, CD2F1 mice, survival T/C. Put plainly: NCI In Vivo Anticancer Drug Screen. Data for tumor model P388 Leukemia (intraperitoneal) in CD2F1 (CDF1) mice. The following applies: endpoint: median survival time, higher = longer survival. Put shortly:
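Mice carrying the transplanted tumor received test compound or vehicle. Survival was recorded in each group, and the value is the treated-group measurement divided by that of the vehicle-treated control group.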

Setting [1] is: dose: 60.0 mg/kg/injection, schedule: Q01DX005 (ip), vehicle: saline with Tween-80.
The mark [2] stands for this setting: dose: 120.0 mg/kg/injection, schedule: Q01DX005 (ip), vehicle: saline with Tween-80.
Setting [3] is: dose: 240.0 mg/kg/injection, schedule: Q01DX005 (ip), vehicle: saline with Tween-80.
[4] abbreviates: dose: 50.0 mg/kg/injection, schedule: Q01DX005 (ip), vehicle: Klucel (hydroxypropylcellulose) (HPC).
[5] abbreviates: dose: 100.0 mg/kg/injection, schedule: Q01DX005 (ip), vehicle: Klucel (hydroxypropylcellulose) (HPC).
[6] abbreviates: dose: 200.0 mg/kg/injection, schedule: Q01DX005 (ip), vehicle: Klucel (hydroxypropylcellulose) (HPC).
Where [7] appears, read: dose: 50.0 mg/kg/injection, schedule: Q01DX009 (ip), vehicle: saline.
[8] abbreviates: dose: 100.0 mg/kg/injection, schedule: Q01DX009 (ip), vehicle: saline.
Setting [9] is: dose: 200.0 mg/kg/injection, schedule: Q01DX009 (ip), vehicle: saline.
Setting [10] is: dose: 25.0 mg/kg/injection, schedule: Q01DX009 (ip), vehicle: saline with Tween-80.
Setting [11] is: dose: 50.0 mg/kg/injection, schedule: Q01DX009 (ip), vehicle: saline with Tween-80.

Regarding `COc1ccc(S(=O)c2coc3ccccc3c2=O)cc1` (stereo not given), the T/C is 99 % of control under setting [1], 100 % of control under setting [2] and 100 % of control under setting [3].
With `Nc1ccc2c(c1N)C(=O)c1ccccc1C2=O`, the T/C was 101 % of control under setting [4], 100 % of control under setting [5] and 100 % of control under setting [6].
As for `Cn1cc(CCc2cc[n+](CCC[n+]3ccc(CCc4cn(C)c5ccccc45)cc3)cc2)c2ccccc21`, the T/C was 104 % of control (dose: 6.25 mg/kg/injection, schedule: Q01DX009 (ip), vehicle: Klucel (hydroxypropylcellulose) (HPC)) and 106 % of control (dose: 12.5 mg/kg/injection, schedule: Q01DX009 (ip), vehicle: Klucel (hydroxypropylcellulose) (HPC)).
Take `O=C(N/C(=C\c1cccc([N+](=O)[O-])c1)c1nc2ccccc2s1)c1ccccc1`: the T/C under setting [1] was 107 % of control, the T/C under setting [2] was 106 % of control and the T/C under setting [3] was 110 % of control.
As for `C1CCC2(CC1)SCC1COCN12` (stereo not given), the T/C runs as follows: (dose: 100.0 mg/kg/injection, schedule: Q04DX003 (ip), vehicle: saline with Tween-80) 103 % of control; (dose: 200.0 mg/kg/injection, schedule: Q04DX003 (ip), vehicle: saline with Tween-80) 97 % of control; (dose: 400.0 mg/kg/injection, schedule: Q04DX003 (ip), vehicle: saline with Tween-80) 103 % of control.
On to `Cc1cccn2cnnc12`, for which the T/C reads like this: under setting [7], 119 % of control; under setting [8], 119 % of control; under setting [9], 117 % of control.
For `COc1ccccc1C(O)(C(F)(F)F)C(F)(F)F`, the T/C (dose: 50.0 mg/kg/injection, schedule: Q01DX009 (ip), vehicle: Klucel (hydroxypropylcellulose) (HPC)) was 101 % of control; the T/C (dose: 100.0 mg/kg/injection, schedule: Q01DX009 (ip), vehicle: Klucel (hydroxypropylcellulose) (HPC)) was 98 % of control; the T/C (dose: 200.0 mg/kg/injection, schedule: Q01DX009 (ip), vehicle: Klucel (hydroxypropylcellulose) (HPC)) is 95 % of control.
As for `Cc1ccc([Si]23OC(C)CN(CC(C)O2)CC(C)O3)cc1` (stereo not given), the T/C is 100 % of control (dose: 50.0 mg/kg/injection, schedule: Q01DX005 (ip), vehicle: saline with Tween-80); 109 % of control (dose: 100.0 mg/kg/injection, schedule: Q01DX005 (ip), vehicle: saline with Tween-80); 100 % of control (dose: 200.0 mg/kg/injection, schedule: Q01DX005 (ip), vehicle: saline with Tween-80).
With `CN(C)CCNc1ccc(N)c2sc3ccccc3c(=O)c12`, the T/C by setting is: under setting [10], 99 % of control and 92 % of control; under setting [11], 100 % of control and 112 % of control and 93 % of control; (dose: 100.0 mg/kg/injection, schedule: Q01DX009 (ip), vehicle: saline with Tween-80) 112 % of control and 121 % of control.
As for `CCCCN(CCCC)C(=O)C(O)C(=O)N(CCCC)CCCC`, the T/C is 104 % of control (dose: 25.0 mg/kg/injection, schedule: Q01DX005 (ip), vehicle: Klucel (hydroxypropylcellulose) (HPC)); 104 % of control under setting [4]; 98 % of control under setting [5]; 109 % of control under setting [6].
For `Cn1nc2c(c(Cl)c1=O)Nc1ccccc1O2`, the T/C under setting [1] is 108 % of control, the T/C under setting [2] is 104 % of control and the T/C under setting [3] is 96 % of control.
In the case of `Nc1nc(N)c2c(Cl)c(CNc3ccc(C(=O)NC(CC(=O)O)CC(=O)O)cc3)ccc2n1`, the T/C (dose: 1.5 mg/kg/injection, schedule: Q01DX005 (ip), vehicle: saline with Tween-80) is 155 % of control; the T/C (dose: 3.0 mg/kg/injection, schedule: Q01DX005 (ip), vehicle: saline with Tween-80) is 174 % of control; the T/C (dose: 6.0 mg/kg/injection, schedule: Q01DX005 (ip), vehicle: saline with Tween-80) is 202 % of control; the T/C (dose: 6.25 mg/kg/injection, schedule: Q01DX005 (ip), vehicle: saline with Tween-80) was 235 % of control; the T/C (dose: 12.0 mg/kg/injection, schedule: Q01DX005 (ip), vehicle: saline with Tween-80) is 275 % of control.
For `COC1=C(OC)C(=O)C(OC)=C(OC)C1=O`, the T/C reads like this: (dose: 12.5 mg/kg/injection, schedule: Q01DX009 (ip), vehicle: saline with Tween-80) 106 % of control; under setting [10], 98 % of control; under setting [11], 104 % of control.
With `COc1cc2cc(c1Cl)N(C)C(=O)CC(OC(=O)C(C)N(C)C(=O)C(C)C)C1(C)OC1C(C)C1CC(OC)(NC(=O)O1)C(OC)/C=C/C=C(C)C2OC` (stereo not given), the T/C reads like this: (dose: 16.0 mg/kg/injection, schedule: Q01DX009 (ip), vehicle: saline) 98 % of control; (dose: 32.0 mg/kg/injection, schedule: Q01DX009 (ip), vehicle: saline) 114 % of control; (dose: 64.0 mg/kg/injection, schedule: Q01DX009 (ip), vehicle: saline) 100 % of control; (dose: 128.0 mg/kg/injection, schedule: Q01DX009 (ip), vehicle: saline) 100 % of control; (dose: 4.0 micrograms/kg/injection, schedule: Q01DX009 (ip), vehicle: saline) 99 % of control; (dose: 8.0 micrograms/kg/injection, schedule: Q01DX009 (ip), vehicle: saline) 99 % of control. Moreover, the T/C (dose: 16.0 micrograms/kg/injection, schedule: Q01DX009 (ip), vehicle: saline) was 103 % of control and the T/C (dose: 32.0 micrograms/kg/injection, schedule: Q01DX009 (ip), vehicle: saline) was 111 % of control.
`CCCCCCN=C(N)N/N=C(\C)c1ccc2c(c1)Cc1cc(/C(C)=N/NC(N)=NCCCCCC)ccc1-2`: the T/C is, setting by setting: (dose: 6.25 mg/kg/injection, schedule: Q04DX002 (ip), vehicle: saline with Tween-80) 98 % of control; (dose: 12.5 mg/kg/injection, schedule: Q04DX002 (ip), vehicle: saline with Tween-80) 107 % of control; (dose: 25.0 mg/kg/injection, schedule: Q04DX002 (ip), vehicle: saline with Tween-80) 109 % of control; (dose: 50.0 mg/kg/injection, schedule: Q04DX002 (ip), vehicle: saline with Tween-80) 116 % of control.
For `NCCCn1[nH]c(=O)c2cnccc2c1=O`, the T/C is, setting by setting: (dose: 50.0 mg/kg/injection, schedule: Q01DX005 (ip), vehicle: saline) 103 % of control; (dose: 100.0 mg/kg/injection, schedule: Q01DX005 (ip), vehicle: saline) 94 % of control; (dose: 200.0 mg/kg/injection, schedule: Q01DX005 (ip), vehicle: saline) 101 % of control.
With `CCOC(=O)C(Cc1c[nH]c2ccccc12)NCCNc1ccccc1` (stereo not given), the T/C by setting is: under setting [7], 91 % of control; under setting [8], 91 % of control; under setting [9], 99 % of control.
With `Cc1c2c(nn1C)CCOC2=O`, the T/C (dose: 100.0 mg/kg/injection, schedule: Q01DX001 (ip), vehicle: Klucel (hydroxypropylcellulose) (HPC)) was 100 % of control; the T/C (dose: 200.0 mg/kg/injection, schedule: Q01DX001 (ip), vehicle: Klucel (hydroxypropylcellulose) (HPC)) was 101 % of control; the T/C (dose: 400.0 mg/kg/injection, schedule: Q01DX001 (ip), vehicle: Klucel (hydroxypropylcellulose) (HPC)) was 95 % of control.
`CCCCNc1ncc(S(=O)(=O)Cc2ccc3c(c2)OCO3)c(N)n1`: the T/C runs as follows: (dose: 100.0 mg/kg/injection, schedule: Q04DX002 (ip), vehicle: saline) 94 % of control; (dose: 200.0 mg/kg/injection, schedule: Q04DX002 (ip), vehicle: saline) 100 % of control; (dose: 400.0 mg/kg/injection, schedule: Q04DX002 (ip), vehicle: saline) 90 % of control.
For the compound `CC1(C)OC(=O)C(=Cc2ccc(C#N)cc2)C(=O)O1`, the T/C runs as follows: under setting [1], 108 % of control; under setting [2], 102 % of control; under setting [3], 111 % of control.
For the compound `c1ccc2c(NCCCCCCCCCCCCCCCCNc3c4ccccc4nc4ccccc34)c3ccccc3nc2c1`, the T/C by setting is: (dose: 0.62 mg/kg/injection, schedule: Q01DX009 (ip), vehicle: other) 98 % of control; (dose: 1.25 mg/kg/injection, schedule: Q01DX009 (ip), vehicle: other) 101 % of control; (dose: 2.5 mg/kg/injection, schedule: Q01DX009 (ip), vehicle: other) 105 % of control; (dose: 5.0 mg/kg/injection, schedule: Q01DX009 (ip), vehicle: other) 109 % of control; (dose: 10.0 mg/kg/injection, schedule: Q01DX009 (ip), vehicle: other) 108 % of control.
As for `COC(=O)CN(CCCl)P1(=O)OCCCN1CCCl` (stereo not given), the T/C is, setting by setting: under setting [1], 97 % of control; under setting [2], 108 % of control.
